Source: US20240261367A1, “CYCLIC PEPTIDE IMMUNOMODULATORS” (priority 2021, published 2024)
Starred links: 1 amine or outer side, 2 acyl side, 3 side chain; linkers in the order of their positions; H or OH if unused. Positions of bridges follow the written chain, without caps; N, C: chain ends. Non-standard residues stand in square brackets, D forms with d. Residues, ends and D or L forms follow the SMILES beside them. *: point of attachment. X2 = COC(=O)CCCCCCCCCCCCCCCCC(=O)N[C@@H](CCC(=O)NCCOCCOCCOCCOCCOCCOCCOCCOCCOCCOCCOCCn1cc(C[C@H](NC(=N)CNC(=O)[C@H](CSCC(=O)[*:1])NC(=N)[C@H](CC(C)C)N[*:2])C(=O)OC)nn1)C(=O)OC; X1 = COC(=O)CCCCCCCCCCCCCCCCC(=O)N[C@@H](CCC(=O)NCCOCCOCCOCCOCCOCCOCCOCCOCCOCCOCCOCCn1cc(C[C@H](NC(=N)CN*)C(=O)O)nn1)C(=O)O; Ala(1-CH2COOH-inden-3-yl) = N[C@@H](CC1=CC(CC(=O)O)c2ccccc21)C(=O)O; Trp(1-CH2CO2Me) = COC(=O)Cn1cc(C[C@H](N)C(=O)O)c2ccccc21; Trp(1-CH2COOH) = N[C@@H](Cc1cn(CC(=O)O)c2ccccc12)C(=O)O; Hyp = O=C(O)[C@@H]1C[C@@H](O)CN1; NMeNle = CCCC[C@H](NC)C(=O)O; NMeA = CN[C@@H](C)C(=O)O; Dab = NCC[C@H](N)C(=O)O; Dap = NC[C@H](N)C(=O)O

target: T1, PD-1/PD-L1 (Homo sapiens, UniProt Q9NZQ7); test: PD-1/PD-L1 Homogenous Time-Resolved Fluorescence (HTRF) binding assay; conditions: PD-L1-His (10 nM) pre-incubated with inhibitor 15 m, then PD-1-Ig (20 nM)
T1 construct: TVMV protease site linker (C); made in house; host or cells: HEK293T cells
T1 sequence (Q9NZQ7 18-239): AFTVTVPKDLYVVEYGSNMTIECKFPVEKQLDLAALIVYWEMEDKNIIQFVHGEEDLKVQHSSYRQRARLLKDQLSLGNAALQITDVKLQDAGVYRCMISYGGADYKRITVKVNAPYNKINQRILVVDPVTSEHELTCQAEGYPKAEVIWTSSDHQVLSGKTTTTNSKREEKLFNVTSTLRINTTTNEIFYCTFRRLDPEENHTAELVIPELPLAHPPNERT
Text: Methods for Testing the Ability of Macrocyclic Peptides to Compete for the Binding of PD-1 to PD-L1 Using Homogenous Time-Resolved Fluorescence (HTRF) Binding Assays
The ability of the compounds of formula (I) to bind to PD-L1 was investigated using a PD-1/PD-L1 Homogenous Time-Resolved Fluorescence (HTRF) binding assay.
Homogenous Time-Resolved Fluorescence (HTRF) Binding Assay
The interaction of PD-1 and PD-L1 can be assessed using soluble, purified preparations of the extracellular domains of the two proteins. The PD-1 and PD-L1 protein extracellular domains were expressed as fusion proteins with detection tags, for PD-1, the tag was the Fc portion of Immunoglobulin (PD-1-Ig) and for PD-L1 it was the 6 histidine motif (PD-L1-His). All binding studies were performed in an HTRF assay buffer consisting of dPBS supplemented with 0.1% […] bovine serum albumin and 0.05% (v/v) Tween-20. […] HTRF detection was achieved using europium crypate-labeled anti-Ig (1 nM final) and allophycocyanin (APC) labeled anti-His (20 nM final). Antibodies were diluted in HTRF detection buffer and 5 μl was dispensed on top of the binding reaction. The reaction mixture was allowed to equilibrate for 30 minutes and the resulting signal (665 nm/620 nm ratio) was obtained using an EnVision fluorometer. Additional binding assays were established between the human proteins PD-1-Ig/PD-L2-His (20 & 5 nM, respectively) and CD80-His/PD-L1-Ig (100 & 10 nM, respectively).
Recombinant Proteins: Human PD-1 (25-167) with a C-terminal human Fc domain of immunoglobulin G (Ig) epitope tag [hPD-1 (25-167)-3S-IG] and human PD-L1 (18-239) with a C-terminal His epitope tag [hPD-L1(18-239)-TVMV-His] were expressed in HEK293T cells and purified sequentially by ProteinA affinity chromatography and size exclusion chromatography. Human PD-L2-His and CD80-His was obtained through commercial sources.
Table 1 lists the IC50 values for representative examples of this disclosure measured in the PD-1/PD-L1 Homogenous Time-Resolved Fluorescence (HTRF) binding assay.

Row | IC50 | Structure (SMILES)
1 | 49 nM | CCCC[C@H]1C(=O)N(C)[C@@H](CCCC)C(=O)N[C@@H](CC(C)C)C(=O)N[C@H](C(=O)NCC(=O)N[C@@H](Cc2cn(CCOCCOCCOCCOCCOCCOCCOCCOCCOCCOCCOCCNC(=O)CC[C@H](NC(=O)CCCCCCCCCCCCCCCCC(=O)O)C(=O)O)nn2)C(=O)O)CSCC(=O)N[C@@H](Cc2ccc(O)cc2)C(=O)N(C)[C@@H](C)C(=O)N[C@@H](CC(N)=O)C(=O)N2CCC[C@H]2C(=O)N[C@@H](CNC(=O)OCC)C(=O)N[C@@H](CC(C)C)C(=O)N2C[C@H](O)C[C@H]2C(=O)N[C@@H](Cc2c[nH]c3ccccc23)C(=O)N[C@@H](CCNC(=O)OC)C(=O)N[C@@H](Cc2cn(CC(=O)O)c3ccccc23)C(=O)N1C [Example 7013]
2 | 9.3 nM | CCCC[C@H]1C(=O)N(C)[C@@H](CCCC)C(=O)N[C@@H](CC(C)C)C(=O)N[C@H](C(=O)NCC(=O)N[C@@H](Cc2cn(CCOCCOCCOCCOCCOCCOCCOCCOCCOCCOCCOCCNC(=O)CC[C@H](NC(=O)CCCCCCCCCCCCCCCCC(=O)O)C(=O)O)nn2)C(=O)O)CSCC(=O)N[C@@H](Cc2ccc(O)cc2)C(=O)N(C)[C@@H](C)C(=O)N[C@@H](CC(N)=O)C(=O)N2CCC[C@H]2C(=O)N[C@@H](CNC(=O)OCCC)C(=O)N[C@@H](CC(C)C)C(=O)N2C[C@H](O)C[C@H]2C(=O)N[C@@H](Cc2c[nH]c3ccccc23)C(=O)N[C@@H](CCN)C(=O)N[C@@H](CC2=CC(CC(=O)O)c3ccccc32)C(=O)N1C (stereo partly shown) [Example 1013]
3 | 12 nM | CCCC[C@H]1C(=O)N(C)[C@@H](CCCC)C(=O)N[C@@H](CC(C)C)C(=O)N[C@H](C(=O)NCC(=O)N[C@@H](Cc2cn(CCOCCOCCOCCOCCOCCOCCOCCOCCOCCOCCOCCNC(=O)CC[C@H](NC(=O)CCCCCCCCCCCCCCCCC(=O)OCC)C(=O)OC)nn2)C(=O)O)CSCC(=O)N[C@@H](Cc2ccc(O)cc2)C(=O)N(C)[C@@H](C)C(=O)N[C@@H](CC(N)=O)C(=O)N2CCC[C@H]2C(=O)N[C@@H](CN)C(=O)N[C@@H](CC(C)C)C(=O)N2C[C@H](O)C[C@H]2C(=O)N[C@@H](Cc2c[nH]c3ccccc23)C(=O)N[C@@H](CCN)C(=O)N[C@@H](Cc2cn(CC(=O)O)c3ccccc23)C(=O)N1C [Example 1005]
4 | 7.3 nM | CCCC[C@H]1C(=O)N(C)[C@@H](CCCC)C(=O)N[C@@H](CC(C)C)C(=N)N[C@H](C(=O)NCC(=N)N[C@@H](Cc2cn(CCOCCOCCOCCOCCOCCOCCOCCOCCOCCOCCOCCNC(=O)CC[C@H](NC(=O)CCCCCCCCCCCCCCCCC(=O)OC)C(=O)OC)nn2)C(=O)OC)CSCC(=O)NCC(=O)N(C)[C@@H](C)C(=O)N[C@@H](CC(N)=O)C(=O)N2CCC[C@H]2C(=O)N[C@@H](CN)C(=O)N[C@@H](CC(C)C)C(=O)N2C[C@H](O)C[C@H]2C(=O)N[C@@H](Cc2c[nH]c3ccccc23)C(=O)N[C@@H](CCN)C(=O)N[C@@H](Cc2cn(CC(=O)OC)c3ccccc23)C(=O)N1C [Example 1001] (G[NMeA]NP[Dap]L[Hyp]W[Dab][Trp(1-CH2CO2Me)][NMeNle][NMeNle]; linker N-C via X2)
5 | 5.5 nM | CCCC[C@H]1C(=O)N(C)[C@@H](CCCC)C(=O)N[C@@H](CC(C)C)C(=O)N[C@H](C(=O)NCC(=O)N[C@@H](Cc2cn(CCOCCOCCOCCOCCOCCOCCOCCOCCOCCOCCOCCNC(=O)CC[C@H](NC(=O)CCCCCCCCCCCCCCCCC(=O)O)C(=O)O)nn2)C(=O)OC)CSCC(=O)N[C@@H](Cc2ccc(O)cc2)C(=O)N(C)[C@@H](C)C(=O)N[C@@H](CC(N)=O)C(=O)N2CCC[C@H]2C(=O)N[C@@H](CN)C(=O)N[C@@H](CC(C)C)C(=O)N2C[C@H](O)C[C@H]2C(=O)N[C@@H](Cc2c[nH]c3ccccc23)C(=O)N[C@@H](CCN)C(=O)N[C@@H](Cc2cn(CC(=O)O)c3ccccc23)C(=O)N1C [Example 6003]
6 | 11 nM | CCCC[C@H]1C(=O)N(C)[C@@H](CCCC)C(=O)N[C@@H](CC(C)C)C(=N)N[C@H](C(=O)NCC(=N)N[C@@H](Cc2cn(CCOCCOCCOCCOCCOCCOCCOCCOCCOCCOCCOCCNC(=O)CC[C@H](NC(=O)CCCCCCCCCCCCCCCCC(=O)OC)C(=O)OC)nn2)C(=O)OC)CSCC(=O)N[C@@H](Cc2ccc(O)cc2)C(=O)N(C)[C@@H](C)C(=O)N[C@@H](CC(N)=O)C(=O)N2CCC[C@H]2C(=O)N[C@@H](CN)C(=O)N[C@@H](CC(C)C)C(=O)N2C[C@H](O)C[C@H]2C(=O)N[C@@H](Cc2c[nH]c3ccccc23)C(=O)N[C@@H](CCN)C(=O)N[C@@H](CC2=CC(CC(=O)O)c3ccccc32)C(=O)N1C (stereo partly shown) [Example 1012] (Y[NMeA]NP[Dap]L[Hyp]W[Dab][Ala(1-CH2COOH-inden-3-yl)][NMeNle][NMeNle]; linker N-C via X2)
7 | 10 nM | C#CCOC(=O)NC[C@@H]1NC(=O)[C@@H]2CCCN2C(=O)[C@H](CC(N)=O)NC(=O)[C@H](C)N(C)C(=O)[C@H](Cc2ccc(O)cc2)NC(=O)CSC[C@@H](C(=O)NCC(=O)N[C@@H](Cc2cn(CCOCCOCCOCCOCCOCCOCCOCCOCCOCCOCCOCCNC(=O)CC[C@H](NC(=O)CCCCCCCCCCCCCCCCC(=O)O)C(=O)O)nn2)C(=O)O)NC(=O)[C@H](CC(C)C)NC(=O)[C@H](CCCC)N(C)C(=O)[C@H](CCCC)N(C)C(=O)[C@H](CC2=CC(CC(=O)O)c3ccccc32)NC(=O)[C@H](CCN)NC(=O)[C@H](Cc2c[nH]c3ccccc23)NC(=O)[C@@H]2C[C@@H](O)CN2C(=O)[C@H](CC(C)C)NC1=O (stereo partly shown) [Example 1010]
8 | 21 nM | CCCC[C@H]1C(=O)N(C)[C@@H](CCCC)C(=O)N[C@@H](CC(C)C)C(=O)N[C@H](C(=O)NCC(=O)N[C@@H](Cc2cn(CCOCCOCCOCCOCCOCCOCCOCCOCCOCCOCCOCCNC(=O)CC[C@H](NC(=O)CCCCCCCCCCCCCCCCC(=O)O)C(=O)OC)nn2)C(=O)OC)CSCC(=O)N[C@@H](Cc2ccc(O)cc2)C(=O)N(C)[C@@H](C)C(=O)N[C@@H](CC(N)=O)C(=O)N2CCC[C@H]2C(=O)N[C@@H](CN)C(=O)N[C@@H](CC(C)C)C(=O)N2C[C@H](O)C[C@H]2C(=O)N[C@@H](Cc2c[nH]c3ccccc23)C(=O)N[C@@H](CCN)C(=O)N[C@@H](Cc2cn(CC(=O)OC)c3ccccc23)C(=O)N1C [Example 3004]
9 | 21 nM | CCCC[C@H]1C(=O)N(C)[C@@H](CCCC)C(=O)N[C@@H](CC(C)C)C(=O)N[C@H](C(=O)NCC(=N)N[C@@H](Cc2cn(CCOCCOCCOCCOCCOCCOCCOCCOCCOCCOCCOCCNC(=O)CC[C@H](NC(=O)CCCCCCCCCCCCCCCCC(=O)OC)C(=O)O)nn2)C(=O)O)CSCC(=O)N[C@@H](Cc2ccc(O)cc2)C(=O)N(C)[C@@H](C)C(=O)N[C@@H](CC(N)=O)C(=O)N2CCC[C@H]2C(=O)N[C@@H](CN)C(=O)N[C@@H](CC(C)C)C(=O)N2C[C@H](O)C[C@H]2C(=O)N[C@@H](Cc2c[nH]c3ccccc23)C(=O)N[C@@H](CCN)C(=O)N[C@@H](Cc2cn(CC(=O)O)c3ccccc23)C(=O)N1C [Example 1007] ({CH2CO}-Y[NMeA]NP[Dap]L[Hyp]W[Dab][Trp(1-CH2COOH)][NMeNle][NMeNle]LC-X1; thioether N-14)
10 | 13 nM | CCCC[C@H]1C(=O)N(C)[C@@H](CCCC)C(=O)N[C@@H](CC(C)C)C(=O)N[C@H](C(=O)NCC(=O)N[C@@H](Cc2cn(CCOCCOCCOCCOCCOCCOCCOCCOCCOCCOCCOCCNC(=O)CC[C@H](NC(=O)CCCCCCCCCCCCCCCCC(=O)O)C(=O)OCC)nn2)C(=O)O)CSCC(=O)N[C@@H](Cc2ccc(O)cc2)C(=O)N(C)[C@@H](C)C(=O)N[C@@H](CC(N)=O)C(=O)N2CCC[C@H]2C(=O)N[C@@H](CN)C(=O)N[C@@H](CC(C)C)C(=O)N2C[C@H](O)C[C@H]2C(=O)N[C@@H](Cc2c[nH]c3ccccc23)C(=O)N[C@@H](CCN)C(=O)N[C@@H](CC2=CC(CC(=O)O)c3ccccc32)C(=O)N1C (stereo partly shown) [Example 1024]
